# Laboratory results reported in patent US12161115B2, “Herbicidal compounds” (SYNGENTA CROP PROTECTION AG, priority 2019, dated 2024).
# Experiments:
# Format in all cases: in vivo
# Lolium perenne (LOLPE) [1] = test: Post-emergence herbicidal glasshouse test; conditions: 250 g/Ha, evaluated after 13 days
# Experimental: (§1) Seeds of a variety of test species are sown in standard soil in pots (Lolium perenne (LOLPE), Setaria faberi (SETFA), Alopecurus myosuroides (ALOMY), Echinochloa crus-galli (ECHCG), Avena fatua (AVEFA)). After cultivation for one day (pre-emergence) or after 8 days cultivation (post-emergence) under controlled conditions in a glasshouse (at 24/16° C., day/night; 14 hours light; 65% humidity), the plants are sprayed with an aqueous spray solution derived from the formulation of the technical active ingredient in acetone/water (50:50) solution containing 0.5% Tween 20 (polyoxyethelyene sorbitan monolaurate, CAS RN 9005-64-5). Compounds are applied at 250 g/h. The test plants are then grown in a glasshouse under controlled conditions in a glasshouse (at 24/16° C., day/night; 14 hours light; 65% humidity) and watered twice daily. After 13 days for pre and post-emergence, the test is evaluated for the percentage damage caused to the plant. The biological activities are shown in the following table on a five point scale (5=80-100%; 4=60-79%; 3=40-59%; 2=20-39%; 1=0-19%). NT=not tested.
# Setaria faberi (SETFA) [2] = test: Post-emergence herbicidal glasshouse test; conditions: 250 g/Ha, evaluated after 13 days
# Experimental: as §1
# [3] = system: Alopecurus myosuroides (ALOMY); test: Post-emergence herbicidal glasshouse test; conditions: 250 g/Ha, evaluated after 13 days
# Experimental: as §1
# [4] = system: Echinochloa crus-galli (ECHCG); test: Post-emergence herbicidal glasshouse test; conditions: 250 g/Ha, evaluated after 13 days
# Experimental: as §1
# Avena fatua (AVEFA) [5] = test: Post-emergence herbicidal glasshouse test; conditions: 250 g/Ha, evaluated after 13 days
# Experimental: as §1
# wheat crop plants = test: Crop phytotoxicity comparison, post-emergence
# Experimental: as §1
# (§2) Using procedures outlines above, wheat and barley crop plants are treated, post-emergence with compounds A1, A3 or A8 of the present invention or comparator compound C1 (Compound A-38 from WO2014/096289) at the application rates indicated. The compounds were also applied in conjunction with the safener compound cloquintocet-mexyl (CQC) at 50 g/ha.
# barley crop plants = test: Crop phytotoxicity comparison, post-emergence
# Experimental: as §1, §2
# Lolium perenne (LOLPE) [6] = test: Pre-emergence herbicidal glasshouse test; conditions: 250 g/Ha, evaluated after 13 days
# Experimental: as §1
# Setaria faberi (SETFA) [7] = test: Pre-emergence herbicidal glasshouse test; conditions: 250 g/Ha, evaluated after 13 days
# Experimental: as §1
# [8] = system: Alopecurus myosuroides (ALOMY); test: Pre-emergence herbicidal glasshouse test; conditions: 250 g/Ha, evaluated after 13 days
# Experimental: as §1
# [9] = system: Echinochloa crus-galli (ECHCG); test: Pre-emergence herbicidal glasshouse test; conditions: 250 g/Ha, evaluated after 13 days
# Experimental: as §1
# Avena fatua (AVEFA) [10] = test: Pre-emergence herbicidal glasshouse test; conditions: 250 g/Ha, evaluated after 13 days
# Experimental: as §1
# [11] = post-emergence, 60 g/ha + safener cloquintocet-mexyl (CQC) at 50 g/ha
# [12] = post-emergence, summary of Table B3
SMILES,"percentage damage caused to the plant, five point scale, LOLPE (Lolium perenne (LOLPE) [1])","percentage damage caused to the plant, five point scale, SETFA (Setaria faberi (SETFA) [2])","percentage damage caused to the plant, five point scale, ALOMY [3]","percentage damage caused to the plant, five point scale, ECHCG [4]","percentage damage caused to the plant, five point scale, AVEFA (Avena fatua (AVEFA) [5])",damage to wheat crop compared to prior art compound C1 (wheat crop plants; in vivo),damage to barley crop compared to prior art compound C1 (barley crop plants; in vivo),"percentage damage caused to the plant, five point scale, LOLPE (Lolium perenne (LOLPE) [6])","percentage damage caused to the plant, five point scale, SETFA (Setaria faberi (SETFA) [7])","percentage damage caused to the plant, five point scale, ALOMY [8]","percentage damage caused to the plant, five point scale, ECHCG [9]","percentage damage caused to the plant, five point scale, AVEFA (Avena fatua (AVEFA) [10])","% phytotoxicity observed, Wheat (wheat crop plants; post-emergence, 30 g/ha)","% phytotoxicity observed, Wheat (wheat crop plants; post-emergence, 60 g/ha)","% phytotoxicity observed, Wheat (wheat crop plants; [11])",damage to wheat crop compared to prior art compound C1 (wheat crop plants; [12]),"% phytotoxicity observed, Barley (barley crop plants; post-emergence, 30 g/ha)","% phytotoxicity observed, Barley (barley crop plants; post-emergence, 60 g/ha)",damage to barley crop compared to prior art compound C1 (barley crop plants; [12])
"CC#Cc1cc(C)c(C2C(=O)CC3(CCN(C(=O)/C=N/OC)CC3)CC2=O)c(C)c1 [Compound A3, 9-(2,6-dimethyl-4-prop-1-ynyl-phenyl)-3-[(2E)-2-methoxyiminoacetyl]-3-azaspiro[5.5]undecane-8,10-dione]",5 (5=80-100%),5 (5=80-100%),5 (5=80-100%),5 (5=80-100%),5 (5=80-100%),significantly less damaging,significantly less damaging,5 (5=80-100%),5 (5=80-100%),4 (4=60-79%),5 (5=80-100%),5 (5=80-100%),–,–,–,–,–,–,–
CC#Cc1cc(C)c(C2C(=O)CC3(CCN(C(=O)C(C)=NOCC)CC3)CC2=O)c(C)c1 [Compound A2],5 (5=80-100%),5 (5=80-100%),5 (5=80-100%),5 (5=80-100%),5 (5=80-100%),–,–,5 (5=80-100%),5 (5=80-100%),5 (5=80-100%),5 (5=80-100%),5 (5=80-100%),–,–,–,–,–,–,–
CC#Cc1cc(C)c(C2C(=O)CC3(CCN(C(=O)/C(C)=N\O)CC3)CC2=O)c(C)c1 [Compound A5],5 (5=80-100%),5 (5=80-100%),5 (5=80-100%),5 (5=80-100%),5 (5=80-100%),–,–,5 (5=80-100%),5 (5=80-100%),4 (4=60-79%),5 (5=80-100%),5 (5=80-100%),–,–,–,–,–,–,–
"CC#Cc1cc(C)c(C2C(=O)CC3(CCN(C(=O)C(C)=NN(C)C)CC3)CC2=O)c(C)c1 [Compound A8, 3-[2-(dimethylhydrazono)propanoyl]-9-(2,6-dimethyl-4-prop-1-ynyl-phenyl)-3-azaspiro[5.5]undecane-8,10-dione]",5 (5=80-100%),5 (5=80-100%),5 (5=80-100%),5 (5=80-100%),5 (5=80-100%),–,–,5 (5=80-100%),5 (5=80-100%),5 (5=80-100%),5 (5=80-100%),5 (5=80-100%),0%,10%,10%,significantly less damaging,0%,0%,significantly less damaging
CC#Cc1cc(C)c(C2C(=O)CC3(CCN(C(=O)/C(C)=N/OC4CCOCC4)CC3)CC2=O)c(C)c1 [Compound A9],4 (4=60-79%),5 (5=80-100%),5 (5=80-100%),5 (5=80-100%),5 (5=80-100%),–,–,3 (3=40-59%),4 (4=60-79%),5 (5=80-100%),3 (3=40-59%),2 (2=20-39%),–,–,–,–,–,–,–
CC#Cc1cc(C)c(C2C(=O)CC3(CCN(C(=O)/C(=N\OC)C(C)(C)C)CC3)CC2=O)c(C)c1 [Compound A7],5 (5=80-100%),5 (5=80-100%),4 (4=60-79%),5 (5=80-100%),3 (3=40-59%),–,–,5 (5=80-100%),5 (5=80-100%),4 (4=60-79%),5 (5=80-100%),2 (2=20-39%),–,–,–,–,–,–,–
CC#Cc1cc(C)c(C2C(=O)CC3(CCN(C(=O)C(C)=NOCC#N)CC3)CC2=O)c(C)c1 [Compound A10],5 (5=80-100%),5 (5=80-100%),5 (5=80-100%),5 (5=80-100%),5 (5=80-100%),–,–,1 (1=0-19%),4 (4=60-79%),4 (4=60-79%),4 (4=60-79%),1 (1=0-19%),–,–,–,–,–,–,–
CC#Cc1cc(C)c(C2C(=O)CC3(CCN(C(=O)/C(C)=N/O)CC3)CC2=O)c(C)c1 [Compound A4],5 (5=80-100%),5 (5=80-100%),5 (5=80-100%),5 (5=80-100%),5 (5=80-100%),–,–,5 (5=80-100%),5 (5=80-100%),5 (5=80-100%),5 (5=80-100%),5 (5=80-100%),–,–,–,–,–,–,–
"CC#Cc1cc(C)c(C2C(=O)CC3(CCN(C(=O)/C(C)=N/Oc4ccccn4)CC3)CC2=O)c(C)c1 [Compound A6, 9-(2,6-dimethyl-4-prop-1-ynyl-phenyl)-3-[(2E)-2-(2-pyridyloxyimino)propanoyl]-3-azaspiro[5.5]undecane-8,10-dione]",5 (5=80-100%),5 (5=80-100%),5 (5=80-100%),5 (5=80-100%),5 (5=80-100%),–,–,5 (5=80-100%),5 (5=80-100%),5 (5=80-100%),5 (5=80-100%),5 (5=80-100%),–,–,–,–,–,–,–
CC#Cc1cc(C)c(C2C(=O)CC3(CCN(C(=O)C(C)=NOCCOC)CC3)CC2=O)c(C)c1 [Compound A11],5 (5=80-100%),5 (5=80-100%),5 (5=80-100%),5 (5=80-100%),5 (5=80-100%),–,–,5 (5=80-100%),5 (5=80-100%),5 (5=80-100%),5 (5=80-100%),3 (3=40-59%),–,–,–,–,–,–,–
"CC#Cc1cc(C)c(C2C(=O)CC3(CCOCC3)CC2=O)c(C)c1 [Compound C1, reference compound]",–,–,–,–,–,–,–,–,–,–,–,–,40%,70%,60%,–,80%,90%,–
